Laboratory results reported in PubChem BioAssay (NCI).
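Briefly, cells in 96-well plates were exposed to five compound concentrations for 48 h, and endpoints were estimated by linear interpolation. GI50 is the concentration that inhibits growth by half. TGI marks complete inhibition of growth.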

Assays:
Assay in all cases: NCI anticancer screen, dose series, 48 h
[1] = system: 786-0 renal
[2] = system: A498 renal
[3] = system: A549 NSCLC
[4] = system: ACHN renal
[5] = system: BT-549 breast
[6] = system: CAKI-1 renal
[7] = system: CCRF-CEM leukemia
[8] = system: COLO 205 colon
[9] = system: DU-145 prostate
[10] = system: EKVX NSCLC
[11] = system: HCC-2998 colon
[12] = system: HCT-116 colon
[13] = system: HCT-15 colon
[14] = system: HL-60(TB) leukemia
[15] = system: HOP-62 NSCLC
[16] = system: HOP-92 NSCLC
[17] = system: HS 578T breast
[18] = system: HT29 colon
[19] = system: IGROV1 ovarian
[20] = system: K-562 leukemia
[21] = system: KM12 colon
[22] = system: LOX IMVI melanoma
[23] = system: M14 melanoma
[24] = system: MALME-3M melanoma
[25] = system: MCF7 breast
[26] = system: MDA-MB-231 breast
[27] = system: MDA-MB-435
[28] = system: MOLT-4 leukemia
[29] = system: NCI-H226 lung
[30] = system: NCI-H23 lung
[31] = system: NCI-H460 lung
[32] = system: NCI-H522 lung
[33] = system: NCI/ADR-RES ovarian
[34] = system: OVCAR-3 ovarian
[35] = system: OVCAR-4 ovarian
[36] = system: OVCAR-5 ovarian
[37] = system: OVCAR-8 ovarian
[38] = system: PC-3 prostate
[39] = system: RPMI-8226 leukemia
[40] = system: RXF 393 renal
[41] = system: SF-268 CNS
[42] = system: SF-295 CNS
[43] = system: SF-539 CNS
[44] = system: SK-MEL-2 melanoma
[45] = system: SK-MEL-28 melanoma
[46] = system: SK-MEL-5 melanoma
[47] = system: SK-OV-3 ovarian
[48] = system: SN12C renal
[49] = system: SNB-19 CNS
[50] = system: SNB-75 CNS
[51] = system: SR leukemia
[52] = system: SW-620 colon
[53] = system: T-47D breast
[54] = system: TK-10 renal
[55] = system: U251 CNS
[56] = system: UACC-257 melanoma
[57] = system: UACC-62 melanoma
[58] = system: UO-31 renal

COC(=O)[C@]12CC[C@@H](C)[C@H](C)[C@@H]1C1=CC[C@@H]3[C@@]4(C)C(C=O)=C[C@@](C)(COC(C)=O)C4=CC[C@@]3(C)[C@]1(C)CC2
GI50 [1]: 3.5 µM
TGI [1]: 15 µM
GI50 [2]: 10.8 µM
TGI [2]: 24 µM
GI50 [3]: 3.82 µM
TGI [3]: 16.2 µM
GI50 [4]: 3.12 µM
TGI [4]: 12.4 µM
GI50 [5]: 6.9 µM
TGI [5]: 25.9 µM
GI50 [6]: 3.66 µM
TGI [6]: 17 µM
GI50 [7]: 1.95 µM
TGI [7]: 7.82 µM
GI50 [8]: 2.34 µM
TGI [8]: 5.8 µM
GI50 [9]: 5.24 µM
TGI [9]: 19.4 µM
GI50 [10]: 4.13 µM
TGI [10]: 16.1 µM
GI50 [11]: 3.32 µM
TGI [11]: 12.4 µM
GI50 [12]: 2.47 µM
TGI [12]: 10.4 µM
GI50 [13]: 3.38 µM
TGI [13]: 12.1 µM
GI50 [14]: 2.68 µM
TGI [14]: 6.49 µM
GI50 [15]: 11.7 µM
TGI [15]: 29.3 µM
GI50 [16]: 2.63 µM
TGI [16]: 16.3 µM
GI50 [17]: 5.07 µM
TGI [17]: 30.3 µM
GI50 [18]: 3.17 µM
TGI [18]: 11 µM
GI50 [19]: 5.51 µM
TGI [19]: 22.7 µM
GI50 [20]: 4.1 µM
TGI [20]: 15.3 µM
GI50 [21]: 3.49 µM
TGI [21]: 14.9 µM
GI50 [22]: 3.3 µM
TGI [22]: 12.7 µM
GI50 [23]: 5.27 µM
TGI [23]: 22.4 µM
GI50 [24]: 3.74 µM
TGI [24]: 15.5 µM
GI50 [25]: 2.99 µM
TGI [25]: 12.5 µM
GI50 [26]: 5.74 µM
TGI [26]: 23.5 µM
GI50 [27]: 4.28 µM
TGI [27]: 16.4 µM
GI50 [28]: 1.82 µM
TGI [28]: 6.12 µM
GI50 [29]: 6.28 µM
TGI [29]: 22.8 µM
GI50 [30]: 4.53 µM
TGI [30]: 19.3 µM
GI50 [31]: 3.98 µM
TGI [31]: 15.2 µM
GI50 [32]: 7.97 µM
TGI [32]: 20.5 µM
GI50 [33]: 5.35 µM
TGI [33]: 18.9 µM
GI50 [34]: 3.54 µM
TGI [34]: 12.2 µM
GI50 [35]: 4.06 µM
TGI [35]: 18.3 µM
GI50 [36]: 5.75 µM
TGI [36]: 21.7 µM
GI50 [37]: 4.46 µM
TGI [37]: 18.9 µM
GI50 [38]: 3.07 µM
TGI [38]: 13.9 µM
GI50 [39]: 2 µM
TGI [39]: 5.7 µM
GI50 [40]: 3.55 µM
TGI [40]: 14.1 µM
GI50 [41]: 4.38 µM
TGI [41]: 17 µM
GI50 [42]: 2.98 µM
TGI [42]: 11.9 µM
GI50 [43]: 10.5 µM
TGI [43]: 26 µM
GI50 [44]: 4.71 µM
TGI [44]: 16.1 µM
GI50 [45]: 3.22 µM
TGI [45]: 12.3 µM
GI50 [46]: 10.5 µM
TGI [46]: 22.6 µM
GI50 [47]: 18 µM
TGI [47]: 50.4 µM
GI50 [48]: 6.12 µM
TGI [48]: 28.1 µM
GI50 [49]: 5.25 µM
TGI [49]: 25.6 µM
GI50 [50]: 2.91 µM
TGI [50]: 19.2 µM
GI50 [51]: 2.22 µM
TGI [51]: 7.83 µM
GI50 [52]: 4.15 µM
TGI [52]: 16.2 µM
GI50 [53]: 3.79 µM
TGI [53]: 27.3 µM
GI50 [54]: 9.31 µM
TGI [54]: 21.6 µM
GI50 [55]: 3.37 µM
TGI [55]: 13.9 µM
GI50 [56]: 4.19 µM
TGI [56]: 17.2 µM
GI50 [57]: 4.11 µM
TGI [57]: 18.1 µM
GI50 [58]: 3.61 µM
TGI [58]: 16 µM
